According to ChEMBL document CHEMBL1201862, “PubChem BioAssay data set” (2004):
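Tested at 5 concentrations; 48 h exposure; 96-well plates; endpoints linearly interpolated, else capped at highest concentration. GI50 marks 50% less growth.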 Calls of active or inactive are those of the source. No stated cut-off is given here; in the data, active = GI50 up to about 1.1 µM and inactive = higher.

Key:
Assay in all cases: growth of human tumour cells (NCI), 48 h
HT-29 = system: HT-29
K562 = system: K562
SW-620 = system: SW-620
ACHN = system: ACHN
OVCAR-3 = system: OVCAR-3
SNB-75 = system: SNB-75
KM12 = system: KM12
EKVX = system: EKVX
COLO 205 = system: COLO 205
HL-60 = system: HL-60
SN12C = system: SN12C
NCI-H226 = system: NCI-H226
U-251 = system: U-251
M14 = system: M14
SK-MEL-2 = system: SK-MEL-2
SK-MEL-5 = system: SK-MEL-5

Oc1nc(-c2ccccc2)cc(-c2ccccc2O)n1
GI50 (HT-29): 56.6 µM (inactive)
GI50 (K562): > 100 µM (inactive)
GI50 (SW-620): > 100 µM (inactive)
GI50 (ACHN): 67.6 µM (inactive)
GI50 (OVCAR-3): 98.2 µM (inactive)
GI50 (SNB-75): 43.9 µM (inactive)
GI50 (KM12): > 100 µM (inactive)
GI50 (EKVX): 6.71 µM (inactive)
GI50 (COLO 205): > 100 µM (inactive)
GI50 (HL-60): 79.1 µM (inactive)
GI50 (SN12C): 95.5 µM (inactive)
GI50 (NCI-H226): > 100 µM (inactive)
GI50 (U-251): 42.2 µM (inactive)
GI50 (M14): > 100 µM (inactive)

C(CCC[Te][Te]CCCCCCOC1CCCCO1)CCOC1CCCCO1 (configuration not stated)
GI50 (HT-29): 12 µM (inactive)
GI50 (K562): 5.86 µM (inactive)
GI50 (SW-620): 18.2 µM (inactive)
GI50 (ACHN): 10.6 µM (inactive)
GI50 (SNB-75): 17.3 µM (inactive)
GI50 (KM12): 13.7 µM (inactive)
GI50 (COLO 205): 15.7 µM (inactive)
GI50 (HL-60): 8.69 µM (inactive)
GI50 (SN12C): 13.7 µM (inactive)
GI50 (SK-MEL-2): 13.3 µM (inactive)
GI50 (U-251): 11.8 µM (inactive)
GI50 (M14): 21.1 µM (inactive)

CCCN(CCC)c1c([N+](=O)[O-])cc(S(N)(=O)=O)cc1[N+](=O)[O-] [ORYZALIN]
GI50 (HT-29): 18.5 µM (inactive)
GI50 (K562): 13.5 µM (inactive)
GI50 (SW-620): 20.7 µM (inactive)
GI50 (ACHN): 17.9 µM (inactive)
GI50 (SK-MEL-5): 19.3 µM (inactive)
GI50 (OVCAR-3): 16.9 µM (inactive)
GI50 (SNB-75): 18.3 µM (inactive)
GI50 (KM12): 17.8 µM (inactive)
GI50 (EKVX): 21.3 µM (inactive)
GI50 (COLO 205): 21.8 µM (inactive)
GI50 (SN12C): 17.4 µM (inactive)
GI50 (NCI-H226): 23.7 µM (inactive)
GI50 (SK-MEL-2): 16.4 µM (inactive)
GI50 (U-251): 12 µM (inactive)
GI50 (M14): 16.9 µM (inactive)

Cc1nc2ccccc2c(=O)n1/N=C(\N=N\c1cc(Cl)ccc1Cl)c1ccc(N(C)C)cc1
GI50 (HT-29): 42 µM (inactive)
GI50 (K562): 57.1 µM (inactive)
GI50 (SW-620): > 100 µM (inactive)
GI50 (ACHN): 71.8 µM (inactive)
GI50 (SK-MEL-5): 27.2 µM (inactive)
GI50 (EKVX): 45.3 µM (inactive)
GI50 (COLO 205): 78.3 µM (inactive)
GI50 (HL-60): 22.9 µM (inactive)
GI50 (SN12C): 58.6 µM (inactive)
GI50 (U-251): 38.1 µM (inactive)

Cc1ccc(C)c(NC(=O)C(=O)Nn2c(S)nc3ccccc3c2=O)c1
GI50 (HT-29): > 100 µM (inactive)
GI50 (K562): > 100 µM (inactive)
GI50 (SW-620): > 100 µM (inactive)
GI50 (ACHN): > 100 µM (inactive)
GI50 (SK-MEL-5): > 100 µM (inactive)
GI50 (SNB-75): > 100 µM (inactive)
GI50 (KM12): > 100 µM (inactive)
GI50 (EKVX): 71.3 µM (inactive)
GI50 (COLO 205): > 100 µM (inactive)
GI50 (HL-60): > 100 µM (inactive)
GI50 (SN12C): > 100 µM (inactive)
GI50 (NCI-H226): > 100 µM (inactive)
GI50 (SK-MEL-2): > 100 µM (inactive)
GI50 (U-251): > 100 µM (inactive)
GI50 (M14): > 100 µM (inactive)

Cc1c[nH]c2c1C13CC1CN(C(=O)c1cc4cc(NC(=O)c5cc6ccccc6o5)ccc4[nH]1)C3=CC2=O (configuration not stated)
GI50 (HT-29): < 0.001 µM (active)
GI50 (K562): < 0.001 µM (active)
GI50 (SW-620): < 0.001 µM (active)
GI50 (ACHN): < 0.001 µM (active)
GI50 (SK-MEL-5): < 0.001 µM (active)
GI50 (SNB-75): < 0.001 µM (active)
GI50 (KM12): < 0.001 µM (active)
GI50 (COLO 205): < 0.001 µM (active)
GI50 (SN12C): < 0.001 µM (active)
GI50 (NCI-H226): < 0.001 µM (active)
GI50 (SK-MEL-2): < 0.001 µM (active)
GI50 (U-251): < 0.001 µM (active)
GI50 (M14): < 0.001 µM (active)

CCN(CC)CCOc1ccc(CCc2cc(OC)c(OC)c(OC)c2)cc1
GI50 (HT-29): 17.5 µM (inactive)
GI50 (K562): 27.8 µM (inactive)
GI50 (SW-620): 18.4 µM (inactive)
GI50 (ACHN): 50.4 µM (inactive)
GI50 (SK-MEL-5): 15.6 µM (inactive)
GI50 (OVCAR-3): 45.7 µM (inactive)
GI50 (SNB-75): 31.3 µM (inactive)
GI50 (KM12): 35.3 µM (inactive)
GI50 (EKVX): 65.3 µM (inactive)
GI50 (COLO 205): 17.3 µM (inactive)
GI50 (HL-60): 18.9 µM (inactive)
GI50 (SN12C): > 100 µM (inactive)
GI50 (NCI-H226): 45 µM (inactive)
GI50 (U-251): 45.3 µM (inactive)
GI50 (M14): 17.5 µM (inactive)

O=C1C(c2ccccc2)=C(c2ccccc2)C(c2ccc(Sc3ccc(C4=C(c5ccccc5)C(=O)C(c5ccccc5)=C4c4ccccc4)cc3)cc2)=C1c1ccccc1
GI50 (HT-29): > 100 µM (inactive)
GI50 (K562): > 100 µM (inactive)
GI50 (SW-620): > 100 µM (inactive)
GI50 (SK-MEL-5): > 100 µM (inactive)
GI50 (OVCAR-3): > 100 µM (inactive)
GI50 (SNB-75): 31.3 µM (inactive)
GI50 (KM12): > 100 µM (inactive)
GI50 (EKVX): > 100 µM (inactive)
GI50 (COLO 205): > 100 µM (inactive)
GI50 (HL-60): > 100 µM (inactive)
GI50 (SN12C): > 100 µM (inactive)
GI50 (NCI-H226): > 100 µM (inactive)
GI50 (SK-MEL-2): > 100 µM (inactive)
GI50 (U-251): 48.6 µM (inactive)
GI50 (M14): > 100 µM (inactive)

CCOC(=O)C1=C(Nc2ccc(Cl)c(Cl)c2)OC/C1=N\NS(=O)(=O)c1ccc(C)cc1
GI50 (K562): 21.3 µM (inactive)
GI50 (SW-620): > 100 µM (inactive)
GI50 (SK-MEL-5): 42.9 µM (inactive)
GI50 (OVCAR-3): 49.5 µM (inactive)
GI50 (SNB-75): 35.8 µM (inactive)
GI50 (KM12): 39.5 µM (inactive)
GI50 (EKVX): 58.1 µM (inactive)
GI50 (COLO 205): > 100 µM (inactive)
GI50 (HL-60): 27.9 µM (inactive)
GI50 (SN12C): 57.8 µM (inactive)
GI50 (NCI-H226): 27.3 µM (inactive)
GI50 (SK-MEL-2): 29.6 µM (inactive)
GI50 (U-251): 66.5 µM (inactive)
GI50 (M14): 73.3 µM (inactive)

CC(=O)N(/N=C\c1ccc([N+](=O)[O-])cc1)c1ccccc1
GI50 (HT-29): > 100 µM (inactive)
GI50 (K562): > 100 µM (inactive)
GI50 (SW-620): > 100 µM (inactive)
GI50 (ACHN): > 100 µM (inactive)
GI50 (SK-MEL-5): > 100 µM (inactive)
GI50 (OVCAR-3): > 100 µM (inactive)
GI50 (SNB-75): 48.3 µM (inactive)
GI50 (KM12): > 100 µM (inactive)
GI50 (EKVX): > 100 µM (inactive)
GI50 (COLO 205): > 100 µM (inactive)
GI50 (SN12C): > 100 µM (inactive)
GI50 (NCI-H226): > 100 µM (inactive)
GI50 (SK-MEL-2): > 100 µM (inactive)
GI50 (U-251): > 100 µM (inactive)
GI50 (M14): > 100 µM (inactive)

Oc1ccc2occ3c2c1CCC3
GI50 (HT-29): > 100 µM (inactive)
GI50 (K562): 65.8 µM (inactive)
GI50 (SW-620): > 100 µM (inactive)
GI50 (ACHN): > 100 µM (inactive)
GI50 (SK-MEL-5): > 100 µM (inactive)
GI50 (OVCAR-3): 64.1 µM (inactive)
GI50 (SNB-75): > 100 µM (inactive)
GI50 (EKVX): 72.6 µM (inactive)
GI50 (COLO 205): > 100 µM (inactive)
GI50 (HL-60): 44.4 µM (inactive)
GI50 (SN12C): > 100 µM (inactive)
GI50 (U-251): > 100 µM (inactive)
GI50 (M14): > 100 µM (inactive)

C/C(=N/N(C=O)C[n+]1ccccc1)C(CN(CC(C)C)CC(C)C)C(=O)Nc1ccc(C)cc1C (configuration not stated)
GI50 (HT-29): > 100 µM (inactive)
GI50 (K562): > 100 µM (inactive)
GI50 (SW-620): > 100 µM (inactive)
GI50 (ACHN): 94.2 µM (inactive)
GI50 (SK-MEL-5): 57.1 µM (inactive)
GI50 (OVCAR-3): > 100 µM (inactive)
GI50 (KM12): 84.1 µM (inactive)
GI50 (EKVX): 17.8 µM (inactive)
GI50 (COLO 205): > 100 µM (inactive)
GI50 (HL-60): 73.1 µM (inactive)
GI50 (SN12C): > 100 µM (inactive)
GI50 (SK-MEL-2): > 100 µM (inactive)
GI50 (M14): > 100 µM (inactive)

O=C(O)c1ccc(C2C(=O)N[C@@H]3CCC[C@H]23)cc1 (some centres not stated)
GI50 (HT-29): > 100 µM (inactive)
GI50 (K562): > 100 µM (inactive)
GI50 (SW-620): > 100 µM (inactive)
GI50 (SK-MEL-5): > 100 µM (inactive)
GI50 (OVCAR-3): > 100 µM (inactive)
GI50 (SNB-75): > 100 µM (inactive)
GI50 (KM12): > 100 µM (inactive)
GI50 (EKVX): > 100 µM (inactive)
GI50 (COLO 205): > 100 µM (inactive)
GI50 (HL-60): > 100 µM (inactive)
GI50 (NCI-H226): > 100 µM (inactive)
GI50 (SK-MEL-2): > 100 µM (inactive)
GI50 (U-251): > 100 µM (inactive)
GI50 (M14): > 100 µM (inactive)

Cc1ccc(-n2cc(/C(N)=N/O)c3ccccc3c2=O)cc1
GI50 (HT-29): > 100 µM (inactive)
GI50 (K562): > 100 µM (inactive)
GI50 (SW-620): > 100 µM (inactive)
GI50 (ACHN): > 100 µM (inactive)
GI50 (SK-MEL-5): > 100 µM (inactive)
GI50 (OVCAR-3): > 100 µM (inactive)
GI50 (KM12): > 100 µM (inactive)
GI50 (EKVX): > 100 µM (inactive)
GI50 (COLO 205): > 100 µM (inactive)
GI50 (HL-60): > 100 µM (inactive)
GI50 (SN12C): > 100 µM (inactive)
GI50 (NCI-H226): > 100 µM (inactive)
GI50 (U-251): > 100 µM (inactive)
GI50 (M14): > 100 µM (inactive)
